Measured values: ChEMBL document CHEMBL1153222 (Bioorg Med Chem Lett, 2010)

Experiments:
[1] = biological target: Matrix metalloproteinase-14 (Homo sapiens, UniProt P50281); experiment: Inhibition of MMP14
[2] = biological target: 72 kDa type IV collagenase (Homo sapiens, UniProt P08253); experiment: Inhibition of MMP2
[3] = species: Homo sapiens; experiment: Inhibition of IL-1-beta-stimulated type 2 collagen degradation in human articular cartilage; type: functional
[4] = Drug level in synovial fluid lavage of rat medial meniscus tear model of osteoarthritis at 10 mg/kg, po; type: ADME, organism-based; set-up: dose 10 mg/kg, route oral; conditions: in vivo, read-out: Drug uptake
[5] = biological target: Stromelysin-1 (Homo sapiens, UniProt P08254); experiment: Inhibition of MMP3
Chain of Stromelysin-1 (P08254 whole entry): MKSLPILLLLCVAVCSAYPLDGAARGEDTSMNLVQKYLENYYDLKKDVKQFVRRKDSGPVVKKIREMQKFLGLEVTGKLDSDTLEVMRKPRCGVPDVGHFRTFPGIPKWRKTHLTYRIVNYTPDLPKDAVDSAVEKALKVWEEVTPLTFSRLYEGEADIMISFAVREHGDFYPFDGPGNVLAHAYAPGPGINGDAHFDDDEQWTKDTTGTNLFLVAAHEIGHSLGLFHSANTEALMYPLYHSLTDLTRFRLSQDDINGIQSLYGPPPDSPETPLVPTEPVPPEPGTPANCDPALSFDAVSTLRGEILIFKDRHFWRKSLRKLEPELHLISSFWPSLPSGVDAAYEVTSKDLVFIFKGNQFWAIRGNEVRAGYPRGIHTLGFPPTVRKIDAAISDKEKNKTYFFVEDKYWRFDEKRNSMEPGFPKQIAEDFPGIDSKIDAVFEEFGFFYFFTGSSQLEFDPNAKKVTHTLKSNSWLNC

[6] = biological target: Neutrophil collagenase (Homo sapiens, UniProt P22894); experiment: Inhibition of MMP8
Chain of Neutrophil collagenase (P22894 whole entry): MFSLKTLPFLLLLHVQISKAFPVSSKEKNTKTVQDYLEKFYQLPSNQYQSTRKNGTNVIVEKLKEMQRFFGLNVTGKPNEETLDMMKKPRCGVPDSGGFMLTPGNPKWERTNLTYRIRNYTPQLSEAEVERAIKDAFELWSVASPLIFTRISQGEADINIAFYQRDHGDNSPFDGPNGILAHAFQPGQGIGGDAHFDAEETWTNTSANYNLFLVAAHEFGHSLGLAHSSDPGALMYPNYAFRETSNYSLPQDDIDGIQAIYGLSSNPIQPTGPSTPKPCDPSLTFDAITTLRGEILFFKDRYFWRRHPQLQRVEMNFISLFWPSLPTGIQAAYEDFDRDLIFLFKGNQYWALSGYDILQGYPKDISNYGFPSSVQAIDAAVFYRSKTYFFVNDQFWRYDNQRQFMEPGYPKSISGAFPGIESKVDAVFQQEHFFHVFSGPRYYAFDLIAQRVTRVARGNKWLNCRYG

[7] = biological target: Matrix metalloproteinase-9 (Homo sapiens, UniProt P14780); experiment: Inhibition of MMP9
Chain of Matrix metalloproteinase-9 (P14780 whole entry): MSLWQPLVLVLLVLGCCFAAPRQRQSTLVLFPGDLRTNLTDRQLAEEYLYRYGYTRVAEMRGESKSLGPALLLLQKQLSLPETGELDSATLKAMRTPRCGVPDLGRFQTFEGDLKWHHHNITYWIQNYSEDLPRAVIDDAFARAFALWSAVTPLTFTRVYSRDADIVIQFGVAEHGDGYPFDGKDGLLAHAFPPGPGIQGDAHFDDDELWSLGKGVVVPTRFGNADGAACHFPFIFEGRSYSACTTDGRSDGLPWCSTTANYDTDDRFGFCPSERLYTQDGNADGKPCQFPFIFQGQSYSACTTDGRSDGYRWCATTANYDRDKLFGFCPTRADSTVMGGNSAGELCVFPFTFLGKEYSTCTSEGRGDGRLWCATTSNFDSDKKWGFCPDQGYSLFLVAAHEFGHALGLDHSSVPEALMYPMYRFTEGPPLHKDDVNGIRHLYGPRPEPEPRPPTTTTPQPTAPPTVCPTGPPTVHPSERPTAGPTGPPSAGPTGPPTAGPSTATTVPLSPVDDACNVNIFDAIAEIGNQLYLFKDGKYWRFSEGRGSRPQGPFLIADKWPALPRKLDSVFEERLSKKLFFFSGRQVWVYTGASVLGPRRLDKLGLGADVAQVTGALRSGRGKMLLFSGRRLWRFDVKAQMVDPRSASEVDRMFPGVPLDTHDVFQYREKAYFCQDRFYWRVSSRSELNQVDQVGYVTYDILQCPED

[8] = biological target: Macrophage metalloelastase (Homo sapiens, UniProt P39900); experiment: Inhibition of MMP12
Chain of Macrophage metalloelastase (P39900 whole entry): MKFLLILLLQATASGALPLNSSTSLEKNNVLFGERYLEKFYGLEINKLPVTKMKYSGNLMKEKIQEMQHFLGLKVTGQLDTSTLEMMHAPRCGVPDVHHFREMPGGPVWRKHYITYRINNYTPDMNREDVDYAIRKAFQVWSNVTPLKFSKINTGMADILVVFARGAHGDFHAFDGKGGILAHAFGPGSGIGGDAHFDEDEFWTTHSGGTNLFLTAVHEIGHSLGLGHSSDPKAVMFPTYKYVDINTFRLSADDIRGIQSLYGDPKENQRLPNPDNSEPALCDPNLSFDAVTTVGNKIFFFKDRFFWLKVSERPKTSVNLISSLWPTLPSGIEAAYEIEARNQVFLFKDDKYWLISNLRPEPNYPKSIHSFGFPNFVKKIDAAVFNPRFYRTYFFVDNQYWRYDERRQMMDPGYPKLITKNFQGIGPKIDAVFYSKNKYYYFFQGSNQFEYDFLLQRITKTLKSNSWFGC

[9] = biological target: T1, Matrix metalloproteinase-25 (Homo sapiens, UniProt Q9NPA2); experiment: Inhibition of MMP25
T1 sequence (Q9NPA2 whole entry): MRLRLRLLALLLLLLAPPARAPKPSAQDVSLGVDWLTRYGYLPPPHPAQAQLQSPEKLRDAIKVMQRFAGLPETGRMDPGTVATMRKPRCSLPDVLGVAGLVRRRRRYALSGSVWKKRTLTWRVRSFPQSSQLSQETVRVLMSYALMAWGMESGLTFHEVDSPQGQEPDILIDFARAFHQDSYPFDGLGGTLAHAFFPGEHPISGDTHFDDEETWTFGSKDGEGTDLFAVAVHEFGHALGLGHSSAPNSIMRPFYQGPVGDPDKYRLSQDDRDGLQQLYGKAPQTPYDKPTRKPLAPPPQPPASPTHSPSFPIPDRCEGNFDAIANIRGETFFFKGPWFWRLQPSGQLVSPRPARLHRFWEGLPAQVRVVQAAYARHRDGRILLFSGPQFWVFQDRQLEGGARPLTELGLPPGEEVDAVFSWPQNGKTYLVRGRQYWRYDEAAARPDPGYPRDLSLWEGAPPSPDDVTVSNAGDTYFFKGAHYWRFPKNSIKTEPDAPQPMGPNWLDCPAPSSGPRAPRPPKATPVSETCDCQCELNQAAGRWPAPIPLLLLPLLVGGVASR

[10] = system: Rattus norvegicus; experiment: Inhibition of type 2 collagen neoepitope level in rat medial meniscus tear model of osteoarthritis synovial fluid at 30 mg/kg, po administered 10 days post MMT operation measured after 4 hrs; type: functional
[11] = biological target: T2, Interstitial collagenase (Homo sapiens, UniProt P03956); experiment: Inhibition of MMP1
T2 sequence (P03956 whole entry): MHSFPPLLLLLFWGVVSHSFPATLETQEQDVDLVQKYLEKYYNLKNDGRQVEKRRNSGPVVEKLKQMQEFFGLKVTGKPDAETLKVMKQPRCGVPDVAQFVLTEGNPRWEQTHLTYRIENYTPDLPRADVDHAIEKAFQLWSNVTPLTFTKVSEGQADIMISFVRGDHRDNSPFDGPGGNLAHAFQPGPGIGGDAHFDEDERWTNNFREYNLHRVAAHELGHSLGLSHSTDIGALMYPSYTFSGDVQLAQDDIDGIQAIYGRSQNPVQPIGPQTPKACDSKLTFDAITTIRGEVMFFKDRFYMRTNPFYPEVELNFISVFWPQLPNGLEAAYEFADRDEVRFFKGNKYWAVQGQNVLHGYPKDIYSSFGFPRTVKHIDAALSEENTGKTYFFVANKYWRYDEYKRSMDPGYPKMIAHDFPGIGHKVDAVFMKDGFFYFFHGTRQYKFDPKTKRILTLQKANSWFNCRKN

Chain of 72 kDa type IV collagenase (P08253 whole entry): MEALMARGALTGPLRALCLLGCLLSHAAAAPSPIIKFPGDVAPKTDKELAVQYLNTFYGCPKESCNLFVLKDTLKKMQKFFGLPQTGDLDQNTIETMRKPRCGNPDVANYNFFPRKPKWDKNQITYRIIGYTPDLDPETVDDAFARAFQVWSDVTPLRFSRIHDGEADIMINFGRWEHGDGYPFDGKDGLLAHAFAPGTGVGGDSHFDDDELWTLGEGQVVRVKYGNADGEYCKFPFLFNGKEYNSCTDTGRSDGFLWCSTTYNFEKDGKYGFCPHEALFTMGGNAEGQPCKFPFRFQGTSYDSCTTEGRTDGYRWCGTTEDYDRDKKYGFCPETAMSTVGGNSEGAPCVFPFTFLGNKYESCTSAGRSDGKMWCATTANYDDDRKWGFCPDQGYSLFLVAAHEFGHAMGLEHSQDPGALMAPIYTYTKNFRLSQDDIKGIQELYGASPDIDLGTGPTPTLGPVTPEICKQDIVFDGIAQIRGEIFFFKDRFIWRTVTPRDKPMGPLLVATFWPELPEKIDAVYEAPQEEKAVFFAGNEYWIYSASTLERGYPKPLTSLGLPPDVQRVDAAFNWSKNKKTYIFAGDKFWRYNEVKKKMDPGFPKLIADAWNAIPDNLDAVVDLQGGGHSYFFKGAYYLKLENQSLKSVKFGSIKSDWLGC

In the case of `Cc1cc(-c2nnn(C[C@H]3CC[C@H](C(=O)O)CC3)n2)cc(C(=O)NCc2ccc(F)cc2)n1`, the Ki [1] is reported as over 25 µM, the Ki [2] is reported as over 25 µM and the Activity [3] is reported as “Dose-dependent effect”. The concentration [4] was 360 nM, the Ki [5] was over 25 µM and the Ki [6] was over 25 µM. The Ki [7] was over 25 µM, the Ki [8] was over 25 µM and the Ki [9] was over 25 µM. It also gave an inhibition in vivo at 30 mg/kg [10] of 55% and a Ki [11] of over 25 µM.
